Experimental findings from ChEMBL document CHEMBL2163249, “Exploration of natural compounds as sources of new bifunctional scaffolds targeting cholinesterases and beta amyloid aggregation: the case of chelerythrine” (Bioorg Med Chem, 2012) are described below.

What is called inhibition is the change of the read-out against control, counted positive when it falls.

Experiment [1] addresses Cholinesterase (Equus caballus) (UniProt P81908). To be noted: at 2 mg/mL.
Description: Inhibition of horse BChE at 2 mg/ml by Ellman's method
Experiment [2] concerns the target Acetylcholinesterase (Electrophorus electricus) (UniProt O42275). The settings on record: at 2 mg/mL.
Description: Inhibition of electric eel AChE at 2 mg/ml by Ellman's method

SMILES strings stand for the structures.

Chain of Acetylcholinesterase (Electrophorus electricus) (O42275 24-633 limits assumed): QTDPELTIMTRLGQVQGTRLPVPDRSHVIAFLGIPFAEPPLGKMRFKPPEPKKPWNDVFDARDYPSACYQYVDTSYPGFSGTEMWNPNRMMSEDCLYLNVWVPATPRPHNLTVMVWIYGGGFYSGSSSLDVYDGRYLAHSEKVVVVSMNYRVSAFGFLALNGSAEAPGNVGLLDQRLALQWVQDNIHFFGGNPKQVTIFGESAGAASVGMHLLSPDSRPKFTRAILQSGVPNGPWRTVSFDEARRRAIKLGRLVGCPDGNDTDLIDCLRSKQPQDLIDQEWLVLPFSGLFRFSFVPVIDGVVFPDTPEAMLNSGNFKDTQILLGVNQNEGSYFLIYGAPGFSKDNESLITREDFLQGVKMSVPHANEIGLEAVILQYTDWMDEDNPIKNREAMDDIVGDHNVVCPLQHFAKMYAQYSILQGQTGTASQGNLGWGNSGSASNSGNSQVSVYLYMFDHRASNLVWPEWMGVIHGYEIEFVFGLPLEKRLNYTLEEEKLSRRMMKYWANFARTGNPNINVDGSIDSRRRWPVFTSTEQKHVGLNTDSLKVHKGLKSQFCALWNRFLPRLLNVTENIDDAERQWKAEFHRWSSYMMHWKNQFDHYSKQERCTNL
Chain of Cholinesterase (Equus caballus) (P81908 whole entry): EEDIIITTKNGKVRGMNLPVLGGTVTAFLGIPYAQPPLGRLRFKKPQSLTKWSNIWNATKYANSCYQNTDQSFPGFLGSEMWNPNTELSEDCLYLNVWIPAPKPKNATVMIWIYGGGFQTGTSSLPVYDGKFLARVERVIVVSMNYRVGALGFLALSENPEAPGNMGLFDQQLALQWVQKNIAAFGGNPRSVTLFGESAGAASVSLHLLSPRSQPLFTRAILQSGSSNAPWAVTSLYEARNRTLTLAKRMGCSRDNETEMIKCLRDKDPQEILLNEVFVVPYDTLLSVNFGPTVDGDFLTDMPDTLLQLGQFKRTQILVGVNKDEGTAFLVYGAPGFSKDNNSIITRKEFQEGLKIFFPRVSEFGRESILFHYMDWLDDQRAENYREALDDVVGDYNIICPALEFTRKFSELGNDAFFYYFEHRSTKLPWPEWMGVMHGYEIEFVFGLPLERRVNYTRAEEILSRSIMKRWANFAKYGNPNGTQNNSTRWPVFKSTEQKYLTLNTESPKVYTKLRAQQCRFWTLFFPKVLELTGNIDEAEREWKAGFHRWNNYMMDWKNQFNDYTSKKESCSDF

In the case of `CC(=O)O[C@H]1C(=O)[C@@]2(C)[C@H]([C@H](OC(=O)c3ccccc3)[C@]3(O)C[C@H](O)C(C)=C1C3(C)C)[C@]1(OC(C)=O)CO[C@@H]1C[C@@H]2O`, the inhibition is 5.3% in experiment [1] and 27.8% in experiment [2].
The matching figures for `COc1cc(/C=C/C(=O)O)ccc1O`: -0.02% and -1.29%.
In the case of `COc1ccc2c3c([nH]c2c1)C(C)=NCC3`, the inhibition in experiment [1] turned out to be 0.63%; in experiment [2] it was 40.4%.
Regarding `C/C=C1\[C@H]2C=C(C)C[C@]1(N)c1ccc(=O)[nH]c1C2`, the results for the inhibition in experiment [1] and in experiment [2] were 11.8% and 97.3%, respectively.
With `COc1c2ccoc2cc2oc(=O)ccc12`, the inhibition in experiment [1] was determined as 10.3%; in experiment [2] it was 21.3%.
Consider `CO[C@H]1/C=C/O[C@@]2(C)Oc3c(C)c(O)c4c(O)c(c(/C=N/N5CCN(C)CC5)c(O)c4c3C2=O)NC(=O)/C(C)=C\C=C\[C@H](C)[C@H](O)[C@@H](C)[C@@H](O)[C@@H](C)[C@H](OC(C)=O)[C@@H]1C`, for which the inhibition in experiment [1] was 1.88%; in experiment [2] it was 16.2%.
For the compound `O=C(/C=C/c1ccc(O)c(O)c1)c1ccc(O)cc1O`, the figures for the inhibition in experiment [1] and in experiment [2] were -0.63% and 10.1%, respectively.
As to `CC(C)=CCC/C(C)=C/CC/C(C)=C/CC/C(C)=C/C(=O)O`, the inhibition in experiment [1] was -2.05%; in experiment [2] it was -5.57%.
With `O=C1C[C@@H]2OCC=C3CN4CC[C@]56c7ccccc7N1[C@H]5[C@H]2[C@H]3C[C@H]46`, the values for the inhibition in experiment [1] and in experiment [2] were 32.4% and 12.2%, respectively.
For `CO[C@H]1[C@@H](O)[C@@H](C)O[C@H](O[C@H]2[C@H](Oc3cccc4c(O)c5c(=O)oc6ccc(C)c7c(=O)oc(c34)c5c67)O[C@H](C)[C@H](O)[C@@H]2O)[C@@H]1O`, the inhibition in experiment [1] is 7.94%; in experiment [2] it was 17.5%.
As to `CC1=C(/C=C/C(C)=C/C=C/C(C)=C/C(=O)O)C(C)(C)CCC1`, the inhibition in experiment [1] was -0.7%; in experiment [2] it was 9.3%.
Take `COc1cc2c(c(OC)c1OC)-c1c(cc3c(c1OC)OCO3)C[C@H](C)[C@H](C)C2`: the inhibition in experiment [1] is 12.7%; in experiment [2] it was -4.27%.
For the compound `COC(=O)[C@@H]1[C@H]2C[C@H]3c4[nH]c5ccccc5c4CCN3C[C@@H]2CC[C@@H]1O`, the inhibition in experiment [1] was -2.5%; in experiment [2], 16.2%.
The matching figures for `COc1c(O)cc(O)c2c(=O)cc(-c3ccccc3)oc12`: -5.86% and -1.48%.
For `CC[C@@H]1/C=C/C=C/C[C@H](C)[C@H](O)[C@](C)(O)C(=O)[C@H](C)[C@@H](O)[C@H](C)C(=O)[C@H](C)[C@@H](O)[C@H](C)/C=C/C(=O)O[C@H]2[C@@H](C)[C@@H](CC1)O[C@@]1(CC[C@@H](C)[C@@H](C[C@H](C)O)O1)[C@@H]2C`, the results for the inhibition in experiment [1] and in experiment [2] were 1.56% and -5.62%, respectively.
For the compound `COc1ccc2cc1Oc1ccc(cc1)C[C@@H]1c3cc(c(OC)cc3CCN1C)Oc1c(OC)c(OC)cc3c1[C@H](C2)N(C)CC3`, the inhibition in experiment [1] was 21.9%; in experiment [2] it was -1.02%.
Take `CCn1cc(C(=O)O)c(=O)c2ccc(C)nc21`: the inhibition was -8.73% in experiment [1] and 0.82% in experiment [2].
Consider `COc1cc([C@@H]2c3cc4c(cc3[C@@H](O[C@@H]3O[C@@H]5CO[C@@H](C)O[C@H]5[C@H](O)[C@H]3O)[C@H]3COC(=O)[C@H]23)OCO4)cc(OC)c1O`, for which the inhibition in experiment [1] was -5.72%; in experiment [2], -9.19%.
For `C[C@@H]1Cc2c(Cl)cc(C(=O)N[C@@H](Cc3ccccc3)C(=O)O)c(O)c2C(=O)O1`, the inhibition in experiment [1] was 8.75%; in experiment [2] it was -6.4%.
Turning to `CO[C@@]12[C@H](COC(N)=O)C3=C(C(=O)C(C)=C(N)C3=O)N1C[C@@H]1N[C@@H]12`, the inhibition in experiment [1] amounted to 3.34%; in experiment [2], 4.01%.
As to `CCN1C[C@]2(COC)CC[C@H](OC)[C@]34C5C[C@@H]6[C@@H](OC)C[C@@]7(OCO[C@@]7(C13)[C@@H](O)C24)C5[C@H]6OC` (stereo partly drawn), the inhibition in experiment [1] is -6.6%; in experiment [2] it was 23.4%.
As to `C[C@H]([C@H](O)CCC(C)(C)O)[C@H]1CC[C@@]2(O)C3=CC(=O)[C@@H]4C[C@@H](O)[C@@H](O)C[C@]4(C)[C@H]3CC[C@]12C`, the results for the inhibition in experiment [1] and in experiment [2] were -1.9% and -0.57%, respectively.
`CC(C)C[C@H]1C(=O)N2CCC[C@H]2[C@]2(O)O[C@](NC(=O)[C@@H]3C=C4c5cccc6[nH]c(Br)c(c56)C[C@H]4N(C)C3)(C(C)C)C(=O)N12`: the figures for the inhibition in experiment [1] and in experiment [2] were 9.94% and -0.33%, respectively.
`O=C(CCc1ccc(O)cc1)c1c(O)cc(O)cc1O`: the inhibition in experiment [1] is 17%; in experiment [2] it was -6.41%.
With `C/C=C1\C[C@@H](C)[C@](O)(CO)C(=O)OCC2=CCN3CC[C@@H](OC1=O)[C@@H]23`, the values for the inhibition in experiment [1] and in experiment [2] were -3.05% and 4.15%, respectively.
As for `CCN1C[C@]2(C)CC[C@H](OC)[C@@]34C1[C@]1(OCO[C@@]15C[C@H](OC)[C@H]1C[C@]3(O)[C@@H]5[C@H]1OC)[C@@H](OC(C)=O)[C@H]24`, the inhibition in experiment [1] was found to be 0.02%; in experiment [2], 29.5%.
As to `COc1c2c(nc3ccccc13)OC(C(C)(O)CO)C2` (stereo not drawn), the inhibition was -2.71% in experiment [1] and 22.5% in experiment [2].
Take `COc1ccc([C@@H]2CC(=O)c3c(O)cc(O)cc3O2)cc1O`: the inhibition in experiment [1] was -8.75%; in experiment [2], -4.02%.
With `O=c1cc(-c2ccccc2)oc2cc(O)c(O)c(O)c12`, the inhibition in experiment [1] was 15%; in experiment [2], -3.74%.
The matching figures for `C[C@H]1[C@H](OC(=O)CCC(=O)O)O[C@@H]2O[C@@]3(C)CC[C@H]4[C@H](C)CC[C@@H]1[C@@]24OO3`: 4.77% and -5.55%.
The matching figures for `O=c1c(-c2ccc(O)cc2)coc2cc(O)cc(O)c12`: 10.5% and 7.3%.
On to `C[C@H]1CC[C@@H]2[C@@H](C)[C@H]3[C@H](C[C@H]4[C@@H]5CC=C6C[C@@H](O[C@@H]7O[C@H](CO)[C@H](O)[C@H](O[C@@H]8O[C@H](CO)[C@@H](O)[C@H](O)[C@H]8O)[C@H]7O[C@@H]7O[C@@H](C)[C@H](O)[C@@H](O)[C@H]7O)CC[C@]6(C)[C@H]5CC[C@]34C)N2C1`, for which the values for the inhibition in experiment [1] and in experiment [2] were 12.2% and 9.15%, respectively.
Turning to `COc1ccc2c(c1)[nH]c1c(C)nccc12`, the inhibition in experiment [1] was determined as 12.1%; in experiment [2], 50.9%.
On to `CC(C)=CC[C@@H](O)C1=CC(=O)c2c(O)ccc(O)c2C1=O`, for which the figures for the inhibition in experiment [1] and in experiment [2] were 3.58% and 15.7%, respectively.
Turning to `Cc1c(C(=O)O)c(O)cc2c1C(=O)c1c(O)c([C@@H]3O[C@H](CO)[C@@H](O)[C@H](O)[C@H]3O)c(O)c(O)c1C2=O`, the inhibition in experiment [1] is -1.98%; in experiment [2], 21.5%.
For `CCCCCCCCCCCCCC[C@@H](O)[C@@H](O)[C@@H](N)CO`, the figures for the inhibition in experiment [1] and in experiment [2] were 7.46% and 24.4%, respectively.
As for `Cc1cc(=O)oc2cc(O)ccc12`, the results for the inhibition in experiment [1] and in experiment [2] were 0.88% and 4.46%, respectively.
As for `COc1cc2c(cc1OC)[C@@H]1C(=O)c3ccc4c(c3O[C@@H]1CO2)C=CC(C)(C)O4`, the values for the inhibition in experiment [1] and in experiment [2] were 2.21% and -8.14%, respectively.
Take `CN1CCc2cc(O)c(O)cc2C1Cc1cc(O)c(O)cc1Br` (racemic): the inhibition stood at 13.4% in experiment [1] and 27.2% in experiment [2].
